According to US12384797B2, “Thioeno[3,2-b] pyridin-7-amine compounds for treating familial dysautonomia” (PTC THERAPEUTICS, INC., priority 2019, dated 2025):

Tested on: Elongator complex protein 1 (ELP1, also referred to as IKBKAP)
Assay: IKBKAP-HTRF assay (IKBKAP protein in lysates of FD patient-derived fibroblasts)
Type: cell-based, human
Details: 48 hours incubation, 7-point concentration curve
Method in brief: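 FD patient-derived fibroblasts (10,000/well) were treated 48 h at 37 °C with a 7-point, 3.16-fold compound series in triplicate, then lysed. IKBKAP was read by sandwich HTRF (donor/acceptor anti-IKAP antibodies, overnight at 4 °C, 665/620 nm). MFI is ΔF over vehicle ΔF; EC2x is the concentration giving twice the vehicle IKBKAP level.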

For `N[C@@H](CCF)Cc1sc2c(NCc3cccs3)cc(Cl)nc2c1Cl` [Compound 98, 2-[(2S)-2-amino-4-fluorobutyl]-3,5-dichloro-N-[(thiophen-2-yl)methyl]thieno[3,2-b]pyridin-7-amine], the “EC2x for IKBKAP protein expression (concentration producing two times the amount of IKBKAP protein vs DMSO vehicle control)” value was “***** (≤0.005 μM is indicated by five stars (*****))” and the “MFI (maximum fold increase in IKBKAP protein abundance relative to the vehicle control)” value was “***** (>4.9 is indicated by five stars (*****))”.
In the case of `N[C@@H](CCO)Cc1sc2c(NCc3nccs3)cc(Cl)nc2c1Cl` [Compound 48, (3S)-3-amino-4-(3,5-dichloro-7-{[(1,3-thiazol-2-yl)methyl]amino}thieno[3,2-b]pyridin-2-yl)butan-1-ol], the “EC2x for IKBKAP protein expression (concentration producing two times the amount of IKBKAP protein vs DMSO vehicle control)” value is reported as “***** (≤0.005 μM is indicated by five stars (*****))” and the “MFI (maximum fold increase in IKBKAP protein abundance relative to the vehicle control)” value is reported as “***** (>4.9 is indicated by five stars (*****))”.
In the case of `C[C@H](N)C(F)c1sc2c(NCc3cccs3)cc(Cl)nc2c1Cl` (stereo partly drawn) [Compound 130, 2-[(2S)-2-amino-1-fluoropropyl]-3,5-dichloro-N-[(thiophen-2-yl)methyl]thieno[3,2-b]pyridin-7-amine], the “EC2x for IKBKAP protein expression (concentration producing two times the amount of IKBKAP protein vs DMSO vehicle control)” value is reported as “***** (≤0.005 μM is indicated by five stars (*****))” and the “MFI (maximum fold increase in IKBKAP protein abundance relative to the vehicle control)” value is reported as “***** (>4.9 is indicated by five stars (*****))”.
For `Cc1c([C@H](C)N)sc2c(NCc3cccs3)cc(Cl)nc12` [Compound 55, 2-[(1S)-1-aminoethyl]-5-chloro-3-methyl-N-[(thiophen-2-yl)methyl]thieno[3,2-b]pyridin-7-amine], the “EC2x for IKBKAP protein expression (concentration producing two times the amount of IKBKAP protein vs DMSO vehicle control)” value was “**** (between >0.005 μM and ≤0.02 μM is indicated by four stars (****))” and the “MFI (maximum fold increase in IKBKAP protein abundance relative to the vehicle control)” value was “**** (between >3.9 and ≤4.9 is indicated by four stars (****))”.
`CSC[C@H](N)Cc1sc2c(NCc3ccco3)cc(Cl)nc2c1C` [Compound 104, 2-[(2R)-2-amino-3-(methylsulfanyl)propyl]-5-chloro-N-[(furan-2-yl)methyl]-3-methylthieno[3,2-b]pyridin-7-amine] was tested, and the “EC2x for IKBKAP protein expression (concentration producing two times the amount of IKBKAP protein vs DMSO vehicle control)” value was “***** (≤0.005 μM is indicated by five stars (*****))” and the “MFI (maximum fold increase in IKBKAP protein abundance relative to the vehicle control)” value was “***** (>4.9 is indicated by five stars (*****))”.
For `Cc1c(C[C@@H](N)CF)sc2c(NCc3cccs3)cc(Cl)nc12` [Compound 91, 2-[(2R)-2-amino-3-fluoropropyl]-5-chloro-3-methyl-N-[(thiophen-2-yl)methyl]thieno[3,2-b]pyridin-7-amine], the “EC2x for IKBKAP protein expression (concentration producing two times the amount of IKBKAP protein vs DMSO vehicle control)” value was “***** (≤0.005 μM is indicated by five stars (*****))” and the “MFI (maximum fold increase in IKBKAP protein abundance relative to the vehicle control)” value was “***** (>4.9 is indicated by five stars (*****))”.
For `N[C@@H](CF)Cc1sc2c(NCc3nccs3)cc(Cl)nc2c1Cl` [Compound 90, 2-[(2R)-2-amino-3-fluoropropyl]-3,5-dichloro-N-[(1,3-thiazol-2-yl)methyl]thieno[3,2-b]pyridin-7-amine], the “EC2x for IKBKAP protein expression (concentration producing two times the amount of IKBKAP protein vs DMSO vehicle control)” value was “***** (≤0.005 μM is indicated by five stars (*****))” and the “MFI (maximum fold increase in IKBKAP protein abundance relative to the vehicle control)” value was “***** (>4.9 is indicated by five stars (*****))”.
With `CC[C@H](N)Cc1sc2c(NCc3nccs3)cc(Cl)nc2c1Br` [Compound 78, 2-[(2S)-2-aminobutyl]-3-bromo-5-chloro-N-[(1,3-thiazol-2-yl)methyl]thieno[3,2-b]pyridin-7-amine] the “EC2x for IKBKAP protein expression (concentration producing two times the amount of IKBKAP protein vs DMSO vehicle control)” value was “***** (≤0.005 μM is indicated by five stars (*****))” and the “MFI (maximum fold increase in IKBKAP protein abundance relative to the vehicle control)” value was “***** (>4.9 is indicated by five stars (*****))”.
For `Cc1cc(NCc2nccs2)c2sc(C[C@H](C)N)c(Cl)c2n1` [Compound 60, 2-[(2S)-2-aminopropyl]-3-chloro-5-methyl-N-[(1,3-thiazol-2-yl)methyl]thieno[3,2-b]pyridin-7-amine], the “EC2x for IKBKAP protein expression (concentration producing two times the amount of IKBKAP protein vs DMSO vehicle control)” value was “**** (between >0.005 μM and ≤0.02 μM is indicated by four stars (****))” and the “MFI (maximum fold increase in IKBKAP protein abundance relative to the vehicle control)” value was “***** (>4.9 is indicated by five stars (*****))”.
With `Cc1c([C@H](C)N)sc2c(NCc3ccco3)cc(Cl)nc12` [Compound 21, 2-[(1S)-1-aminoethyl]-5-chloro-N-[(furan-2-yl)methyl]-3-methylthieno[3,2-b]pyridin-7-amine] the “EC2x for IKBKAP protein expression (concentration producing two times the amount of IKBKAP protein vs DMSO vehicle control)” value was “**** (between >0.005 μM and ≤0.02 μM is indicated by four stars (****))” and the “MFI (maximum fold increase in IKBKAP protein abundance relative to the vehicle control)” value was “**** (between >3.9 and ≤4.9 is indicated by four stars (****))”.
With `COc1c(C[C@H](C)N)sc2c(NCc3ccco3)cc(Cl)nc12` [Compound 136, 2-[(2S)-2-aminopropyl]-5-chloro-N-[(furan-2-yl)methyl]-3-methoxythieno[3,2-b]pyridin-7-amine] the “EC2x for IKBKAP protein expression (concentration producing two times the amount of IKBKAP protein vs DMSO vehicle control)” value was “***** (≤0.005 μM is indicated by five stars (*****))” and the “MFI (maximum fold increase in IKBKAP protein abundance relative to the vehicle control)” value was “***** (>4.9 is indicated by five stars (*****))”.
With `C[C@H](N)C(F)c1sc2c(NCc3cccs3)cc(Cl)nc2c1Br` (stereo partly drawn) [Compound 158, 2-[(2S)-2-amino-1-fluoropropyl]-3-bromo-5-chloro-N-[(thiophen-2-yl)methyl]thieno[3,2-b]pyridin-7-amine] the “EC2x for IKBKAP protein expression (concentration producing two times the amount of IKBKAP protein vs DMSO vehicle control)” value was “***** (≤0.005 μM is indicated by five stars (*****))” and the “MFI (maximum fold increase in IKBKAP protein abundance relative to the vehicle control)” value was “***** (>4.9 is indicated by five stars (*****))”.
`N#Cc1cc(NCc2cccs2)c2scc(C#N)c2n1` [Compound 12, 7-{[(thiophen-2-yl)methyl]amino}thieno[3,2-b]pyridine-3,5-dicarbonitrile] was tested, and the “EC2x for IKBKAP protein expression (concentration producing two times the amount of IKBKAP protein vs DMSO vehicle control)” value was “*** (between >0.02 μM and ≤0.5 μM is indicated by three stars (***))” and the “MFI (maximum fold increase in IKBKAP protein abundance relative to the vehicle control)” value was “** (between >1.9 and ≤2.9 is indicated by two stars (**))”.
`N#CC[C@H](N)Cc1sc2c(NCc3cccs3)cc(Cl)nc2c1Cl` [Compound 106, (3S)-3-amino-4-(3,5-dichloro-7-{[(thiophen-2-yl)methyl]amino}thieno[3,2-b]pyridin-2-yl)butanenitrile] was tested, and the “EC2x for IKBKAP protein expression (concentration producing two times the amount of IKBKAP protein vs DMSO vehicle control)” value was “***** (≤0.005 μM is indicated by five stars (*****))” and the “MFI (maximum fold increase in IKBKAP protein abundance relative to the vehicle control)” value was “***** (>4.9 is indicated by five stars (*****))”.
With `Cc1c([C@H](N)C(C)C)sc2c(NCc3ccco3)cc(Cl)nc12` [Compound 31, 2-[(1R)-1-amino-2-methylpropyl]-5-chloro-N-[(furan-2-yl)methyl]-3-methylthieno[3,2-b]pyridin-7-amine] the “EC2x for IKBKAP protein expression (concentration producing two times the amount of IKBKAP protein vs DMSO vehicle control)” value was “* (An EC2x>1 μM is indicated by one star (*))” and the “MFI (maximum fold increase in IKBKAP protein abundance relative to the vehicle control)” value was “* (An MFI≤1.9 is indicated by one star (*))”.
For `COc1cccc(NC(=O)[C@H](N)Cc2sc3c(NCc4ccco4)cc(Cl)nc3c2C)c1` [Compound 144, 3-(5-chloro-7-{[(furan-2-yl)methyl]amino}-3-methylthieno[3,2-b]pyridin-2-yl)-N-(3-methoxyphenyl)-D-alaninamide], the “EC2x for IKBKAP protein expression (concentration producing two times the amount of IKBKAP protein vs DMSO vehicle control)” value was “**** (between >0.005 μM and ≤0.02 μM is indicated by four stars (****))” and the “MFI (maximum fold increase in IKBKAP protein abundance relative to the vehicle control)” value was “***** (>4.9 is indicated by five stars (*****))”.
In the case of `COc1csc2c(NCc3ccco3)cc(Cl)nc12` [Compound 137, 5-chloro-N-[(furan-2-yl)methyl]-3-methoxythieno[3,2-b]pyridin-7-amine], the “EC2x for IKBKAP protein expression (concentration producing two times the amount of IKBKAP protein vs DMSO vehicle control)” value is reported as “*** (between >0.02 μM and ≤0.5 μM is indicated by three stars (***))” and the “MFI (maximum fold increase in IKBKAP protein abundance relative to the vehicle control)” value is reported as “***** (>4.9 is indicated by five stars (*****))”.
`Cc1c(C[C@@H](N)C(=O)Nc2cnccn2)sc2c(NCc3ccco3)cc(Cl)nc12` [Compound 135, 3-(5-chloro-7-{[(furan-2-yl)methyl]amino}-3-methylthieno[3,2-b]pyridin-2-yl)-N-pyrazin-2-yl-D-alaninamide] was tested, and the “EC2x for IKBKAP protein expression (concentration producing two times the amount of IKBKAP protein vs DMSO vehicle control)” value was “***** (≤0.005 μM is indicated by five stars (*****))” and the “MFI (maximum fold increase in IKBKAP protein abundance relative to the vehicle control)” value was “**** (between >3.9 and ≤4.9 is indicated by four stars (****))”.
`CC[C@H](N)Cc1sc2c(NCc3nccs3)cc(Cl)nc2c1Cl` [Compound 82, 2-[(2S)-2-aminobutyl]-3,5-dichloro-N-[(1,3-thiazol-2-yl)methyl]thieno[3,2-b]pyridin-7-amine] was tested, and the “EC2x for IKBKAP protein expression (concentration producing two times the amount of IKBKAP protein vs DMSO vehicle control)” value was “***** (≤0.005 μM is indicated by five stars (*****))” and the “MFI (maximum fold increase in IKBKAP protein abundance relative to the vehicle control)” value was “***** (>4.9 is indicated by five stars (*****))”.
In the case of `Cc1c(C[C@@H](N)C(=O)Nc2ccncc2)sc2c(NCc3ccco3)cc(Cl)nc12` [Compound 140, 3-(5-chloro-7-{[(furan-2-yl)methyl]amino}-3-methylthieno[3,2-b]pyridin-2-yl)-N-pyridin-4-yl-D-alaninamide], the “EC2x for IKBKAP protein expression (concentration producing two times the amount of IKBKAP protein vs DMSO vehicle control)” value is reported as “***** (≤0.005 μM is indicated by five stars (*****))” and the “MFI (maximum fold increase in IKBKAP protein abundance relative to the vehicle control)” value is reported as “***** (>4.9 is indicated by five stars (*****))”.
With `Cc1c(C[C@@H](N)[C@H](C)F)sc2c(NCc3cccs3)cc(Cl)nc12` [Compound 126, 2-[(2R,3S)-2-amino-3-fluorobutyl]-5-chloro-3-methyl-N-[(thiophen-2-yl)methyl]thieno[3,2-b]pyridin-7-amine] the “EC2x for IKBKAP protein expression (concentration producing two times the amount of IKBKAP protein vs DMSO vehicle control)” value was “***** (≤0.005 μM is indicated by five stars (*****))” and the “MFI (maximum fold increase in IKBKAP protein abundance relative to the vehicle control)” value was “***** (>4.9 is indicated by five stars (*****))”.
